Data reported in EP0388245A1, “Agent resistant to AIDS virus” (TERUMO KABUSHIKI KAISHA, priority 1989, dated 1990).

Columns and labels:
[1] = system: Reverse transcriptase originating in avain myeloblastic virum; assay: Test for activity to inhibit reverse transcriptase ([³H] thymidine triphosphate incorporation); format: biochemical; parameters: Radio activity #1 / Radio activity #2: unit not given here; conditions: for % control: inhibition of reverse transcriptase
Procedure: This test was carried out by the method described below.
This test solution was prepared by dissolving Compound A in a concentration of 5 mg/ml in dimethyl sulfoxide and diluting the resultant solution with distilled water.
Fifty (50) µl of the measuring solution and 50 µl of the test solution were mixed and left reacting at 37°C for one hour. The reaction mixture was cooled with ice to stop the reaction. Then 50 µl of […] by a disk of DEAE cellulose paper 2.4 cm in diameter. The wet paper was washed three times with an aqueous 5% […] (with 12 molecules of crystal water) and once each with distilled water and ethanol. The radioactivity was determined with a liquid scintillation counter.

[2] = system: HTLV-IIIb (one kind of HIV); assay: Test for activity to inhibit hyperplasia of HIV: suppression of cytopathic effect (CPE), live cells counted by trypan blue; format: cell-based, human immunodeficiency virus (HIV); conditions: for MT-4/HIV (live cells): HTLV-IIIb infected MT-4 cells, MOI 0.02, 4 days
Procedure: (§1) A test for the activity to inhibit hyperplasia of HIV was conducted in accordance with the method proposed by Harada et al [Science, 229, 563-5663 (1985)]. Testing conditions: Cell: […] (HTLV-I-carrying cell line) Virus: THLV-IIIb (one kind of HIV); HTLV-IIIb was prepared from the supernatant of the culture broth of MOLT-4/HIV, a HIV-producing cell. The potency of the virus was 1 x 10⁶ TCID 50/ml. Culture medium: RPMI-1640 (containing 10% bovine fetal serum, 100 IV/penicilin, and 100 µg/ml streptomycin) Culture conditions: In each of the wells of a 24-well culture tray, […] cells (6.6 x 10⁵/ml, 0.3 ml) and HTLV-II Ib ([…], 0.2 ml) were placed [multiplicity of infection (MOI = 0.02)] and cultured for 1 hour. After adsorption of virus, Compound A diluted with culture medium (0.5 ml) was added to a total volume of 1.0 ml and cultured at 37°C for 4 days. Cells not infected by HTLV-IIIb dilution aqueous solution and cells not treated with Compound A were used as controls.
(§2) Virally infected cells and uninfected cells were cultured for 4 days. After the culture, the live cells were counted by the trypan blue tinting method. The property of cytopathic effect suppression was evaluated by comparison of the number of live cells in the culture broths of virally infected cells and uninfected cells both obtained in the absence of Compound A.

MT-4 = assay: Toxicity to uninfected MT-4 cells, live cell count by trypan blue after 4 days culture; format: cell-based; conditions: for MT-4 (live cells) / Toxicity (% control): uninfected MT-4 cells; for MT-4 (live cells): 4 days
Procedure: as §1, §2

K₇PW₁₀Ti₂O₄₀·6H₂O [Compound A]
Average value (CPM) ([1]; Concentration 12,500 µg/ml): 3906.0 CPM
Radio activity #1 ([1]; Concentration 12,500 µg/ml): 3666
Radio activity #2 ([1]; Concentration 12,500 µg/ml): 4146
% control ([1]; Concentration 12,500 µg/ml): 50.8%
Average value (CPM) ([1]; Concentration 25,000 µg/ml): 3878.0 CPM
Radio activity #1 ([1]; Concentration 25,000 µg/ml): 3143
Radio activity #2 ([1]; Concentration 25,000 µg/ml): 4613
% control ([1]; Concentration 25,000 µg/ml): 51.2%
Average value (CPM) ([1]; Concentration 50,000 µg/ml): 2450.5 CPM
Radio activity #1 ([1]; Concentration 50,000 µg/ml): 1828
Radio activity #2 ([1]; Concentration 50,000 µg/ml): 3079
% control ([1]; Concentration 50,000 µg/ml): 71.1%
Average value (CPM) ([1]; Concentration 100,000 µg/ml): 1391.0 CPM
Radio activity #1 ([1]; Concentration 100,000 µg/ml): 1231
Radio activity #2 ([1]; Concentration 100,000 µg/ml): 1391
% control ([1]; Concentration 100,000 µg/ml): 86.0%
Average value (CPM) ([1]; Concentration 200,000 µg/ml): 967.0 CPM
Radio activity #1 ([1]; Concentration 200,000 µg/ml): 970
Radio activity #2 ([1]; Concentration 200,000 µg/ml): 930
% control ([1]; Concentration 200,000 µg/ml): 92.0%
activity to inhibit reverse transcriptase ([1]; summary in words of Table 2): manifested an activity to inhibit reverse transcriptase even in a small application rate
activity to control CPE ([2]; 25 to 100 ug/ml, MT-4/HIV): excelled in activity to control CPE
MT-4/HIV (live cells) ([2]; Compound A 25 µg/ml): 10.0 x 10⁵ cells/ml
MT-4/HIV (live cells) ([2]; Compound A 50 µg/ml): 9.8 x 10⁵ cells/ml
MT-4/HIV (live cells) ([2]; Compound A 100 µg/ml): 8.5 x 10⁵ cells/ml
MT-4/HIV (live cells) ([2]; Compound A 200 µg/ml): 4.8 x 10⁵ cells/ml
MT-4/HIV (live cells) ([2]; Compound A 400 µg/ml): 4.7 x 10⁵ cells/ml
% CPE Control ([2]; MT-4/HIV, Compound A 25 µg/ml): 90%
% CPE Control ([2]; MT-4/HIV, Compound A 50 µg/ml): 88%
% CPE Control ([2]; MT-4/HIV, Compound A 100 µg/ml): 71%
% CPE Control ([2]; MT-4/HIV, Compound A 200 µg/ml): 25%
% CPE Control ([2]; MT-4/HIV, Compound A 400 µg/ml): 47%
toxicity (MT-4; 25 to 100 ug/ml, MT-4): only inconspicuous toxicity
MT-4 (live cells) (MT-4; Compound A 25 µg/ml): 11.8 x 10⁵ cells/ml
MT-4 (live cells) (MT-4; Compound A 50 µg/ml): 9.8 x 10⁵ cells/ml
MT-4 (live cells) (MT-4; Compound A 100 µg/ml): 10.1 x 10⁵ cells/ml
MT-4 (live cells) (MT-4; Compound A 200 µg/ml): 8.5 x 10⁵ cells/ml
MT-4 (live cells) (MT-4; Compound A 400 µg/ml): 6.0 x 10⁵ cells/ml
Toxicity (% control) (MT-4; Compound A 25 µg/ml): 0 % control
Toxicity (% control) (MT-4; Compound A 50 µg/ml): 1 % control
Toxicity (% control) (MT-4; Compound A 100 µg/ml): 0 % control
Toxicity (% control) (MT-4; Compound A 200 µg/ml): 21 % control
Toxicity (% control) (MT-4; Compound A 400 µg/ml): 44 % control
